Laboratory results published in publication PMC11032326, “A practical synthesis of nitrone-derived C5a-functionalized isofagomines as protein stabilizers to treat Gaucher disease” (Communications Chemistry, 2024).

Key:
[1] = test system: β-glucosidase activity in p.Asn370Ser/p.Leu29Alafs*18 Gaucher fibroblasts (GM00372); test: Intact cell β-glucosidase activity study (chaperone activity) in Gaucher fibroblasts; format: cell-based, human; conditions: compared to untreated cells (=1)
Procedure: (§1) GM00372 cells were seeded into 96-well culture plates. […] The final concentration of DMSO was <0.5% which had no cytotoxicity or glucosidase inhibition. The cells were incubated for 5 days and the medium for DMSO-treated cells or compound-treated cells was renewed every 3 days. The enzyme activity assay was performed after removing the medium supplemented with compounds. Compounds were evaluated at all concentrations in triplicate. The monolayers were washed with Dulbecco’s PBS solution (Gibco pH 7.4). PBS (16 μL) and acetate buffer (0.2 M, 16 μL, pH 4.0) were added to each well. The reaction was started by the addition of 4-methylumbelliferyl β-D-glucoside (4 mM, 25 μL, Sigma) to each well, followed by incubation at 37 °C for 2 h. The reaction was stopped by lysing the cells with glycine buffer (0.2 M, 200 μL, pH 10.8). The fluorescence was also measured by the release of 4-methylumbelliferone with an excitation wavelength of 355 nm and an emission wavelength of 460 nm (SpectraMax M5, Molecular Devices). The fluorescence of untreated cells was compared with those treated with compounds. Among the resynthesized compounds, compound 16 was further subjected to the same experiments described above thoroughly at the concentration of 0–500 nM. Likewise, 4-methylumbelliferyl α-D-glucoside (4 mM, 25 μL, Sigma) was used to evaluate the cellular α-glucosidase activity in GM00372 cells treated with or without compound 16 (0–500 nM).

rh-GCase [2] = target: T1, rh-GCase (Homo sapiens, UniProt P04062); test: Thermal stability shift assay (fluorescence-based thermal denaturation); format: binding; conditions: compared to Tm of rh-GCase without small molecule; for ΔTm at 100 µM: pH 7, 100 µM, read-out: In-vitro rh-GCase stabilization ΔTm; for In-vitro rh-GCase stabilization ΔTm: 100 µM, pH 7.0
T1 sequence (P04062 40-536): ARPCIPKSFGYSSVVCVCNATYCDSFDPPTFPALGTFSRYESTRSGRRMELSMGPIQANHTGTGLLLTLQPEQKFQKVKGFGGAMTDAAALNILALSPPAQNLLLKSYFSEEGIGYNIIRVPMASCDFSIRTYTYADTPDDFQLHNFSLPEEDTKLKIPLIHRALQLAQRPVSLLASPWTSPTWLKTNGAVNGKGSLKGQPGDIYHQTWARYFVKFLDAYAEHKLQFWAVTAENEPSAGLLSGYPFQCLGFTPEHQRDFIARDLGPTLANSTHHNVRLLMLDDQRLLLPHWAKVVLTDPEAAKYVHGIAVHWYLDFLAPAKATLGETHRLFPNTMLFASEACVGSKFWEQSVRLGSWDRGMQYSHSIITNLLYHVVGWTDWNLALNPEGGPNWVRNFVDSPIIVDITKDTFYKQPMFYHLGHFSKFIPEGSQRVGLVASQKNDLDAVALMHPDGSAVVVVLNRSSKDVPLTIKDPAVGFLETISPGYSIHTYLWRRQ
Procedure: The stability of rh-GCase was assessed using a modified fluorescence thermal stability assay on a Rotor-Gene system in a neutral pH buffer (phosphate buffer, pH 7.0). […] A thermal gradient was applied to the plate at a rate of 1 °C/minute, during which time the fluorescence of SYPRO Orange was continuously monitored. The fluorescence intensity at each temperature was normalized to the maximum fluorescence after complete thermal denaturation.

rh-GCase [3] = target: T1, rh-GCase; test: rh-GCase inhibition study (in-situ screening and IC50 of resynthesized compounds); format: biochemical; conditions: for IC50: resynthesized compounds, read-out: IC50 against rh-GCase
[4] = test system: Gaucher p.Asn370Ser fibroblasts (GM00372); test: rh-GCase activity in Gaucher patient fibroblasts (co-administration), GM00372; format: cell-based, human; conditions: rh-GCase 0.17 μM, 16 at 1 μM, 24 h
Procedure: (§2) Gaucher patient fibroblasts (GM00372 and GM00877) (2 × 10^4 cells) were seeded in 48-well culture plates and incubated overnight. […] After 24 h, the medium was refreshed without rh-GCase and SMPSs, then the cells were incubated for another 24 h. Cells were harvested by trypsinization and the cell pellets were washed twice with PBS and lysed with lysis buffer containing 0.1% Triton X-100, 50 mM Tris-HCl, and 150 mM NaCl. GCase activity assay was performed by mixing lysate (10 μl) and substrate (90 μL of 4 mM 4-methylumbelliferyl β-D-glucopyranoside) in 0.1 M NaOAc and incubating at 37 °C for 1 h. Reactions were terminated by adding 0.2 N glycine-NaOH, pH 10.7. The fluorescence was detected at excitation/emission wavelengths 355/460 nm.

[5] = test system: p.Leu444Pro Gaucher fibroblasts (GM00877); test: rh-GCase activity in Gaucher patient fibroblasts (co-administration), GM00877; format: cell-based, human; conditions: rh-GCase 0.17 μM, 16 at 1 μM, 24 h
Procedure: as §2

[6] = test system: cellular α-glucosidase activity in GM00372 cells; test: Intact cell α-glucosidase activity study in Gaucher fibroblasts; format: cell-based, human; conditions: 0–500 nM
Procedure: as §1, with “Likewise, 4-methylumbelliferyl α-D-glucoside (4 mM, 25 μL, Sigma) was used to evaluate the cellular α-glucosidase activity in GM00372 cells treated with or without compound 16 (0–500 nM).” left out

[7] = Fluorescence-based thermal shift assay of pegylated rh-GCases; format: physicochemical; conditions: rh-GCase modified by MeO-PEG-NHS (Mw 5000 Da), molar ratio reagent to enzyme
Text: Supplementary Figure 1. Characterization of rh-GCase modified by MeO-PEG-NHS (Mw 5000 Da) with different molar ratios of reagent to the enzyme. (A) SDS-PAGE analysis of the pegylated rh-GCases indicated the acceptable effectiveness of the modification reaction, but reacting rh-GCase with longer MeO-PEG-NHS reagents resulted the incomplete pegylation (data not shown). (B) The […]
(also on this page, place not known: rh -GCase MeO -PEG-NHS rh -GCase MeO -PEG-NHS 40 50 60 70 0 20 40 60 80 100 Mono-PEG5k (50 eq) Mono-PEG5k (100 eq) Temperature (oC) Unfolded protein (%)) […]

C/C(=C\c1ccccc1)C(=O)NC[C@@H]1NC[C@@H](O)[C@H](O)[C@H]1CO [Compound 15]
β-glucosidase activity enhancement in p.Asn370Ser cells ([1]; 100 nM): 1.8 fold
ΔTm at 100 µM (rh-GCase [2]): 11.3 °C
IC50 (rh-GCase [3]): 30 ± 7.8 nM

O=C(/C=C/c1cccc(Br)c1)NC[C@@H]1NC[C@@H](O)[C@H](O)[C@H]1CO [Compound 16]
β-glucosidase activity enhancement in p.Asn370Ser cells ([1]; 10 nM): 2.5 fold
β-glucosidase activity enhancement in p.Asn370Ser cells ([1]; 25 nM): up to 2.7 fold
activity enhancement on co-administration with rh-GCase compared to rh-GCase alone [4]: 13 fold
In-vitro rh-GCase stabilization ΔTm (rh-GCase [2]): 14.2 °C
ΔTm at 100 µM (rh-GCase [2]): 13.2 °C
activity enhancement on co-administration with rh-GCase compared to rh-GCase alone [5]: 9.1 fold
IC50 (rh-GCase [3]): 4 ± 0.7 nM
influence on cellular α-glucosidase activity [6]: without impairing cellular α-glucosidase activity

O=C(Cc1ccc(Br)cc1)NC[C@@H]1NC[C@@H](O)[C@H](O)[C@H]1CO [Compound 17]
β-glucosidase activity enhancement in p.Asn370Ser cells ([1]; 100 nM): 1.7 fold
In-vitro rh-GCase stabilization ΔTm (rh-GCase [2]): 13.2 °C
ΔTm at 100 µM (rh-GCase [2]): 14.2 °C
IC50 (rh-GCase [3]): 5.1 ± 1.1 nM

Cc1ccc(C(=O)NC[C@H]2NC[C@@H](O)[C@H](O)[C@H]2CO)c([N+](=O)[O-])c1 [Compound 18]
IC50 (rh-GCase [3]): 191 ± 43 nM

COc1ccc(Br)cc1/C=C/C(=O)NC[C@H]1NC[C@@H](O)[C@H](O)[C@H]1CO [Compound 19]
IC50 (rh-GCase [3]): 7.7 ± 1.5 nM

COc1ccc(C(=O)NC[C@H]2NC[C@@H](O)[C@H](O)[C@H]2CO)c(OC)c1 [Compound 20]
IC50 (rh-GCase [3]): 45.6 ± 13.7 nM

O=C(NC[C@H]1NC[C@@H](O)[C@H](O)[C@H]1CO)c1cccc2c1C(=O)c1ccccc1-2 [Compound 21]
IC50 (rh-GCase [3]): 25.9 ± 11.1 nM

O=C(Cc1ccc(Br)cc1)NC[C@H]1NC[C@@H](O)[C@H](O)[C@H]1CO [Compound 22]
IC50 (rh-GCase [3]): 250 ± 49 nM

O=C(NC[C@@H]1NC[C@@H](O)[C@H](O)[C@H]1CO)c1ccc2ccccc2c1 [Compound 23]
IC50 (rh-GCase [3]): 63.6 ± 9.5 nM

Cc1ccc(C(=O)NC[C@@H]2NC[C@@H](O)[C@H](O)[C@H]2CO)c([N+](=O)[O-])c1 [Compound 24]
IC50 (rh-GCase [3]): 11 ± 0.7 nM

COc1ccc(Br)cc1/C=C/C(=O)NC[C@@H]1NC[C@@H](O)[C@H](O)[C@H]1CO [Compound 25]
IC50 (rh-GCase [3]): 26.4 ± 8 nM

COc1ccc(C(=O)NC[C@@H]2NC[C@@H](O)[C@H](O)[C@H]2CO)c(OC)c1 [Compound 26]
IC50 (rh-GCase [3]): 200 ± 32 nM

O=C(NC[C@@H]1NC[C@@H](O)[C@H](O)[C@H]1CO)c1cccc2c1C(=O)c1ccccc1-2 [Compound 27]
IC50 (rh-GCase [3]): 68.3 ± 22 nM

OC[C@H]1CNC[C@@H](O)[C@@H]1O [IFG, isofagomine]
β-glucosidase activity enhancement in p.Asn370Ser cells ([1]; 1000 nM): 1.7 fold
activity enhancement on co-administration with rh-GCase compared to rh-GCase alone [4]: 7 fold
ΔTm at 100 µM (rh-GCase [2]): 9.6 °C
activity enhancement on co-administration with rh-GCase compared to rh-GCase alone [5]: 6 fold

O=C(NCC1NCC(O)C(O)C1CO)c1ccc2ccccc2c1 (stereo not shown) [S1]
IC50 (rh-GCase [3]): 3.7 ± 0.4 nM
fold greater inhibitory potency than IFG (rh-GCase [3]; rh-GCase IC50 compared with IFG): 50 fold

B1: rh-GCase: recombinant human GCase used for enzyme replacement therapy (protein, UniProt P04062 40-536, looked up)
Lysosomal acid …: ARPCIPKSFGYSSVVCVCNATYCDSFDPPTFPALGTFSRYESTRSGRRMELSMGPIQANHTGTGLLLTLQPEQKFQKVKGFGGAMTDAAALNILALSPPAQNLLLKSYFSEEGIGYNIIRVPMASCDFSIRTYTYADTPDDFQLHNFSLPEEDTKLKIPLIHRALQLAQRPVSLLASPWTSPTWLKTNGAVNGKGSLKGQPGDIYHQTWARYFVKFLDAYAEHKLQFWAVTAENEPSAGLLSGYPFQCLGFTPEHQRDFIARDLGPTLANSTHHNVRLLMLDDQRLLLPHWAKVVLTDPEAAKYVHGIAVHWYLDFLAPAKATLGETHRLFPNTMLFASEACVGSKFWEQSVRLGSWDRGMQYSHSIITNLLYHVVGWTDWNLALNPEGGPNWVRNFVDSPIIVDITKDTFYKQPMFYHLGHFSKFIPEGSQRVGLVASQKNDLDAVALMHPDGSAVVVVLNRSSKDVPLTIKDPAVGFLETISPGYSIHTYLWRRQ
Tm [7]: 49.1 ± 0.1 oC

B2: Mono-PEG5k (50 eq): rh-GCase modified by MeO-PEG-NHS (Mw 5000 Da), 50 eq of reagent (conjugate, UniProt P04062 40-536, looked up)
Lysosomal acid …: ARPCIPKSFGYSSVVCVCNATYCDSFDPPTFPALGTFSRYESTRSGRRMELSMGPIQANHTGTGLLLTLQPEQKFQKVKGFGGAMTDAAALNILALSPPAQNLLLKSYFSEEGIGYNIIRVPMASCDFSIRTYTYADTPDDFQLHNFSLPEEDTKLKIPLIHRALQLAQRPVSLLASPWTSPTWLKTNGAVNGKGSLKGQPGDIYHQTWARYFVKFLDAYAEHKLQFWAVTAENEPSAGLLSGYPFQCLGFTPEHQRDFIARDLGPTLANSTHHNVRLLMLDDQRLLLPHWAKVVLTDPEAAKYVHGIAVHWYLDFLAPAKATLGETHRLFPNTMLFASEACVGSKFWEQSVRLGSWDRGMQYSHSIITNLLYHVVGWTDWNLALNPEGGPNWVRNFVDSPIIVDITKDTFYKQPMFYHLGHFSKFIPEGSQRVGLVASQKNDLDAVALMHPDGSAVVVVLNRSSKDVPLTIKDPAVGFLETISPGYSIHTYLWRRQ
modifications: PEG 5 kDa, 50 eq
notes: rh-GCase modified by MeO-PEG-NHS (Mw 5000 Da), 50 eq of reagent
Tm [7]: 51.7 ± 0.3 oC

B3: Mono-PEG5k (100 eq): rh-GCase modified by MeO-PEG-NHS (Mw 5000 Da), 100 eq of reagent (conjugate, UniProt P04062 40-536, looked up)
Lysosomal acid …: ARPCIPKSFGYSSVVCVCNATYCDSFDPPTFPALGTFSRYESTRSGRRMELSMGPIQANHTGTGLLLTLQPEQKFQKVKGFGGAMTDAAALNILALSPPAQNLLLKSYFSEEGIGYNIIRVPMASCDFSIRTYTYADTPDDFQLHNFSLPEEDTKLKIPLIHRALQLAQRPVSLLASPWTSPTWLKTNGAVNGKGSLKGQPGDIYHQTWARYFVKFLDAYAEHKLQFWAVTAENEPSAGLLSGYPFQCLGFTPEHQRDFIARDLGPTLANSTHHNVRLLMLDDQRLLLPHWAKVVLTDPEAAKYVHGIAVHWYLDFLAPAKATLGETHRLFPNTMLFASEACVGSKFWEQSVRLGSWDRGMQYSHSIITNLLYHVVGWTDWNLALNPEGGPNWVRNFVDSPIIVDITKDTFYKQPMFYHLGHFSKFIPEGSQRVGLVASQKNDLDAVALMHPDGSAVVVVLNRSSKDVPLTIKDPAVGFLETISPGYSIHTYLWRRQ
modifications: PEG 5 kDa, 100 eq
notes: rh-GCase modified by MeO-PEG-NHS (Mw 5000 Da), 100 eq of reagent
Tm [7]: 50.3 ± 0.4 oC
